Data from EP0597303A2, “Cephalosporin derivatives” (priority 1992, dated 1994).
Where a name gives a salt, the structure may show the parent alone. Read-outs that look alike come from different tables or passages of the source.

Key:
Experiment in all cases: MIC, Agar (Mueller Hinton) Dilution Method
Type in all cases: cell-based
Prot. mirabilis 620A = conditions: Proteus mirabilis
Source text: (§1) The in vitro activity of the compounds of formula I of the present invention as measured by the Minimum Inhibitory Concentration (MIC) in micrograms/ml utilizing the Agar (Mueller Hinton) Dilution Method against a variety of Gram-positive and Gram-negative organisms, is set forth in Table 1.

Str. pyogenes 503-782 = conditions: Streptococcus pyogenes, 503782; Str. pyogenes 503-782; Gram Positive and Others; read-out: MIC
Source text: as §1

E. coli Leo HA2 = conditions: Escherichia coli, LEOHA2, Gram Negative
Source text: as §1

Ent. hirae ATCC 8043 = conditions: Enterococcus hirae, ATCC8043, Gram Positive and Others
Source text: as §1

E. coli 94 = conditions: Escherichia coli, Gram Negative
Source text: as §1

E. coli 2008 E = conditions: Escherichia coli; E. coli 2008 E; Gram Negative; read-out: MIC
Source text: as §1

E. coli TEM-1a = conditions: Escherichia coli, TEM1A
Source text: as §1

Ps. aeruginosa 1937E = conditions: Pseudomonas aeruginosa, Gram Negative
Source text: as §1

Micrococcus luteus PCI = system: Micrococcus luteus PCI
Source text: as §1

Escherichia coli 257 = conditions: Gram Negative
Source text: as §1

Staph. aureus 67 = conditions: Staphylococcus aureus; Staph. aureus 67; methicillin-resistant; Gram Positive and Others; read-out: MIC
Source text: as §1

Enter. cloacae 5699 = conditions: Enterobacter cloacae, Gram Negative
Source text: as §1

E. coli DC-0 = conditions: Escherichia coli, DC0, Gram Negative
Source text: as §1

Prot. mirabilis 190 = conditions: Proteus mirabilis; Prot. mirabilis 190; Gram Negative; read-out: MIC
Source text: as §1

Ser. marcescens MA = conditions: Serratia marcescens, Gram Negative
Source text: as §1

E. coli ATCC 25922 = conditions: Escherichia coli, ATCC25922
Source text: as §1

E. coli 2721B = conditions: Escherichia coli; E. coli 2721B; Gram Negative; read-out: MIC
Source text: as §1

K. oxytoca 1082EN = conditions: Klebsiella oxytoca
Source text: as §1

Xan. maltophilia 2897B = conditions: Stenotrophomonas maltophilia, Gram Negative
Source text: as §1

Ps. aeruginosa 56-1B = conditions: Pseudomonas aeruginosa, 561B; Ps. aeruginosa 56-1B; Gram Negative; read-out: MIC
Source text: as §1

Staph. aureus 404 = conditions: Staphylococcus aureus; Staph. aureus 404; Gram Positive and Others; read-out: MIC
Source text: as §1

Staph. aureus 3647B = conditions: Staphylococcus aureus; Staph. aureus 3647B; Gram Positive and Others; read-out: MIC
Source text: as §1

Mycobacterium phlei 78 = conditions: Mycolicibacterium phlei; Mycobacterium phlei 78; Gram Positive and Others; read-out: MIC
Source text: as §1

Staph. aureus 95 = conditions: Staphylococcus aureus; Staph. aureus 95; Gram Positive and Others; read-out: MIC
Source text: as §1

Prot. vulgaris 1028 BC = conditions: Proteus vulgaris, 1028BC
Source text: as §1

Prot. mirabilis 503-1136 = conditions: Proteus mirabilis, 5031136; Prot. mirabilis 503-1136; Gram Negative; read-out: MIC
Source text: as §1

Staph. aureus ATCC 29213 = conditions: Staphylococcus aureus, ATCC29213; Staph. aureus ATCC 29213; Gram Positive and Others; read-out: MIC
Source text: as §1

Klebsiella pneumoniae A = conditions: Gram Negative
Source text: as §1

E. coli 1527E = conditions: Escherichia coli, Gram Negative
Source text: as §1

Ser. marcescens 1071 = conditions: Serratia marcescens; Ser. marcescens 1071; Gram Negative; read-out: MIC
Source text: as §1

Enter. cloacae 4192-2 = conditions: Enterobacter cloacae, 41922
Source text: as §1

Staph. pyogenes 4 = conditions: Staph. pyogenes 4; Gram Positive and Others; read-out: MIC
Source text: as §1

[1] = system: Pseudomonas aeruginosa 5712; conditions: Gram Negative
Source text: as §1

Ps. aeruginosa 18SH = conditions: Pseudomonas aeruginosa, constitutive ß-lactamase producer, Gram Negative
Source text: as §1

E. coli Leo HA2M4 = conditions: Escherichia coli, LEOHA2M4
Source text: as §1

Staph. aureus 82 = conditions: Staphylococcus aureus
Source text: as §1

Ps. aeruginosa K799/61 = conditions: Pseudomonas aeruginosa
Source text: as §1

Ps. aeruginosa 8780 = conditions: Pseudomonas aeruginosa, Gram Negative
Source text: as §1

SMILES	MIC (Str. pyogenes 503-782) [mg/L]	MIC (E. coli Leo HA2) [mg/L]	MIC (Ent. hirae ATCC 8043) [mg/L]	MIC (E. coli 94) [mg/L]	MIC (E. coli 2008 E) [mg/L]	MIC (E. coli TEM-1a) [mg/L]	MIC (Ps. aeruginosa 1937E) [mg/L]	MIC (Escherichia coli 257) [mg/L]	MIC (Staph. aureus 67) [mg/L]	MIC (Enter. cloacae 5699) [mg/L]	MIC (E. coli DC-0) [mg/L]	MIC (Prot. mirabilis 190) [mg/L]	MIC (Ser. marcescens MA) [mg/L]	MIC (E. coli 2721B) [mg/L]	MIC (Xan. maltophilia 2897B) [mg/L]	MIC (Ps. aeruginosa 56-1B) [mg/L]	MIC (Staph. aureus 404) [mg/L]	MIC (Staph. aureus 3647B) [mg/L]	MIC (Mycobacterium phlei 78) [mg/L]	MIC (Staph. aureus 95) [mg/L]	further results
O=C(Cc1cccs1)N[C@@H]1C(=O)N2C(C(=O)O)=C(COC(=O)N3CCN(c4c(F)cc5c(=O)c(C(=O)O)cn(C6CC6)c5c4F)CC3)CS[C@H]12 [Formula Ia, [6R,7R]-3-[[[[4-(3-Carboxy-1-cyclopropyl-6,8-difluoro-1,4-dihydro-4-oxo-7-quinolinyl)-1-piperazinyl]carbonyl]-oxy]-methyl]-8-oxo-7-[(2-thienylacetyl)amino]-5-thia-1-azabicyclo-[4.2.0]oct-2-ene-2-carboxylic acid]	≤ 0.0156	≤ 0.0156	2	0.0625	0.0313	0.0625	1	0.0625	1	0.125	2	0.125	16	0.0313	1	0.25	0.5	0.5	0.125	0.5	MIC (Prot. mirabilis 620A; 620A): 0.0625 mg/L; MIC (Micrococcus luteus PCI; Micrococcus luteus PCI, Gram Positive and Others, read-out: MIC): ≤ 0.0156 mg/L; MIC (E. coli ATCC 25922): 0.0625 mg/L; MIC (K. oxytoca 1082EN; 1082EN): 0.0625 mg/L; MIC (Prot. vulgaris 1028 BC): 0.0625 mg/L; MIC (Prot. mirabilis 503-1136): 0.5 mg/L; MIC (Staph. aureus ATCC 29213): 0.5 mg/L; MIC (Klebsiella pneumoniae A): 0.25 mg/L; MIC (E. coli 1527E): ≤ 0.0156 mg/L; MIC (Ser. marcescens 1071): 0.125 mg/L; MIC (Enter. cloacae 4192-2): 0.0625 mg/L; MIC (Staph. pyogenes 4): ≤ 0.0156 mg/L; MIC [1]: 2 mg/L; MIC (Ps. aeruginosa 18SH): 1 mg/L; MIC (E. coli Leo HA2M4; E. coli Leo HA2M4, Gram Negative, read-out: MIC): ≤ 0.0156 mg/L; MIC (Staph. aureus 82; Staph. aureus 82, Gram Positive and Others, read-out: MIC): 0.125 mg/L; MIC (Ps. aeruginosa K799/61; Ps. aeruginosa K799/61, Gram Negative, read-out: MIC): 2 mg/L
N#CCC(=O)N[C@@H]1C(=O)N2C(C(=O)O)=C(COC(=O)NC3CCN(c4c(F)cc5c(=O)c(C(=O)O)cn(C6CC6)c5c4F)C3)CS[C@H]12 (stereo partly drawn) [Formula Ib, [6R,7R]-3-[[[[[1-(3-Carboxy-1-cyclopropyl-6,8-difluoro-1,4-dihydro-4-oxo-7-quinolinyl-3-[R,S]-pyrrolidinyl]-amino]carbonyl]oxy]methyl]-7-[(cyanoacetyl)amino]-8-oxo-5-thia-1-azabicyclo[4.2.0]oct-2-ene-2-carboxyiic acid monosodium salt]	0.0625	0.0156	2	0.125	0.0625	0.125	0.5	0.125	0.25	0.25	1	0.25	4	0.0625	0.25	0.5	0.25	0.25	0.25	0.25	MIC (Ps. aeruginosa 8780): 1 mg/L; MIC (Prot. mirabilis 620A; Prot. mirabilis 620A, Gram Negative, read-out: MIC): 0.25 mg/L; MIC (Micrococcus luteus PCI; Micrococcus luteus): 0.125 mg/L; MIC (E. coli ATCC 25922; E. coli ATCC 25922, Gram Negative, read-out: MIC): 0.0625 mg/L; MIC (K. oxytoca 1082EN; K. oxytoca 1082EN, Gram Negative, read-out: MIC): 0.0625 mg/L; MIC (Prot. vulgaris 1028 BC): 0.125 mg/L; MIC (Prot. mirabilis 503-1136): 0.25 mg/L; MIC (Staph. aureus ATCC 29213): 0.25 mg/L; MIC (Klebsiella pneumoniae A): 0.25 mg/L; MIC (E. coli 1527E): 0.0625 mg/L; MIC (Ser. marcescens 1071): 0.25 mg/L; MIC (Enter. cloacae 4192-2; Enter. cloacae 4192-2, Gram Negative, read-out: MIC): 0.0625 mg/L; MIC (Staph. pyogenes 4): 0.0625 mg/L; MIC [1]: 2 mg/L; MIC (Ps. aeruginosa 18SH): 0.5 mg/L; MIC (E. coli Leo HA2M4): 0.0313 mg/L; MIC (Staph. aureus 82; 82): 0.125 mg/L; MIC (Ps. aeruginosa K799/61; K799/61): 0.125 mg/L
